Reference: patent US10172921B2, “Method of treating an inflammatory bowel disease comprising agonists of orexin-1 receptor” (INSERM (INSTITUT NATIONAL DE LA SANTÉ ET DE LA RECHERCHE …, priority 2014, dated 2019)

How the values were obtained:
EXCY2 mice = assay: Spontaneous UC-like colitis in EXCY2 mice (IL10-/-; Nox1-/-): DAI, colon histology, stress pathways; assay type: in vivo; conditions: for DAI score: OxA 0.22 μmoles/kg intraperitoneal or 5-ASA 0.053 g/kg oral, scale 0 (no symptoms) to 4 (severe colitis), untreated mice 4, FIG. 7; for severe colitis: 10 week-old EXCY2 mice, 2 IP/week during 3 weeks
From the text: FIG. 4: Histological aspect of colon mucosa in OxA treated mice (right) and non-treated mice (left)
FIG. 7: OXA better improves the DAI (weight and colitis score) of EXCY2 mice that the gold standard 5-aminosalicylic acid (5-ASA) treatment. Mice were intraperitoneal injected or not with OxA (0.22 μmoles/kg) or orally treated with 5-ASA (0.053 g/kg). DAI score including the weight loss, severity of diarrhea, the presence of blood in the stool, inflammation and edema was estimated using a scale ranging from 0 (no symptoms) to 4 (severe colitis).
DSS mouse model has been extensively used to decipher the mucosal inflammation in IBD, UC pathogenesis, and preclinical studies. However, mice show differential susceptibilities and responsiveness to DSS-induced colitis depending on their genetic background, gender. DSS model is a faithful model of inflammation but departs from Ulcerative Colitis in part for lack of the inflammation gradient from the rectum to the proximal colon usually observed in UC, any deregulation of ER stress in goblet cells known to be an early etiological factor of UC, and no digestive or extra-digestive complications of UC such as cholangitis and colorectal cancer, respectively. The use of genetically modified mice model represents a good alternative to chemically-induced colitis mice model. The recent development of a new spontaneous UC-like mouse model (EXCY2 mice, WO/2012/140516) consisting of a double KO of IL10 and Nox1 (IL10^−/−; Nox1^−/−) is ideally suited to study the OxA effect on spontaneous colitis. Indeed, EXCY2 mice 1) develop a spontaneous colitis at 6/7 weeks of age with an upwards gradient from the rectum and reproduce all molecular characteristics seen in UC including, loss of goblet cells, deregulation of ER stress, protective effect of tobacco; 2) spontaneously colonic cancer at 8 months of age (35-40% of mice); 3) develop mild cholangitis.
(§1) In contrast, the secretion of anti-inflammatory cytokine IL10 was unchanged (FIG. 6).
The treatment of EXCY2 mice with 5-ASA reduced the DAI score as compared to untreated mice, i.e. 3 vs 4, respectively.

[1] = system: cytokines secretion in EXCY2 mice; assay: Cytokine secretion in colons of EXCY2 mice (Cytokine CBA kits); assay type: in vivo; conditions: OxA 0.22 μmoles/kg, FIG. 6
Protocol: FIG. 6: OXA effects on cytokines secretion in EXCY2 mice. Colons of EXCY2 mice from untreated mice (white) and treated with OxA (0.22 μmoles/kg) treatment (black) were resected after animal sacrifice. Then, protein extraction was performed by tissue disruption. Cytokines were determined using Cytokine CBA kits (see Material and Methods).
as §1

DSS-induced colitis mice = assay: DSS-induced colitis in mice: Disease Activity Index and colon histology; assay type: in vivo
From the text: FIG. 2: OXA ameliorates the DAI (weight and colitis score) of DSS-induced colitis mice. Mice were orally treated with 5% DSS for 7 days.
FIG. 5: OXA ameliorates the DAI (weight and colitis score) of DSS-induced colitis mice. Mice were orally treated with 5% DSS for 7 days in the presence or in the absence of daily intraperitoneal injection of OxA (0.22 μmoles/kg). DAI score including weight loss, severity of diarrhea, the presence of blood in the stool, inflammation and edema was estimated using a scale ranging from 0 (no symptoms) to 4 (severe colitis). DSS, dextran sulfate sodium; WT, wild type mice.
Based on these observations, we have investigated the effect of Orexin A (OxA) on acute inflammation in mice treated with Dextran Sulfate Sodium (DSS). OxA was preferentially chosen in these experiments since the presence of two disulphide bridges confers it more stability. DSS induces acute colitis characterized by weight loss, bloody diarrhea, intestinal ulcerations and infiltrations with granulocytes.
(§2) These observations are confirmed by histologic aspect of colon epithelium (histologic scoring by a GI pathologist). Thus, OxA has probably an anti-inflammatory effect on DSS-induced colitis. To confirm this hypothesis, we have investigated the anti-inflammatory effect of OxA treatment on cytokines secretion in colon extracts from DSS-treated mice. […] In contrast, OxA has no effect on INFγ, IL10, and IL12 cytokine secretion in colon extracts (FIG. 3).
As shown in FIG. 5 when DSS-induced colitis mice were treated with OxA, the DAI score was ameliorated (about of 1.5).

Caco2 cells = assay: Oxidative stress and ER stress pathways in Caco2 cells; assay type: cell-based
[2] = system: cytokines secretion in colon extracts from DSS-treated mice; assay: Cytokine secretion in colon extracts of DSS-induced colitis mice; assay type: in vivo; conditions: FIG. 3
From the text: FIG. 3: OXA effects on cytokines secretion in DSS-induced colitis mice
as §2

[3] = colon extracts of DSS-induced colitis mice
[4] = colon extracts of DSS-treated mice

In the case of `Nc1ccc(O)c(C(=O)O)c1` [5-ASA, 5-aminosalicylic acid, reference compound], the DAI score (EXCY2 mice; EXCY2 mice) is reported as 3.

In the case of “Orexin-A (XPLPDCCRQKTCSCRLYELLHGAGNHAAGILTLX; not fully specified; two disulphide bridges; MOD_RES (1)..(1) PYRROLIDONE CARBOXYLIC ACID; (34)..(34) Xaa can be any naturally occurring amino acid; listed as Homo sapiens) [OxA]”, the IFNγ secretion [1] is reported as “strong reduction”, the IL6 secretion [1] is reported as “strong reduction” and the IL10 secretion [1] is reported as “unchanged”. For the same compound, the IL12 secretion [1] was “strong reduction”, the MCP1 secretion [1] was “strong reduction” and the TNFα secretion [1] was “strong reduction”. The severe colitis (EXCY2 mice; 0.22 μmoles/kg OxA) was “alleviated”, the severe colitis (EXCY2 mice; 1 μM OxA) was “alleviated” and the “deregulated pathways involved in the onset of colitis (oxidative stress and ER stress)” value (EXCY2 mice; EXCY2 mice) was “induced”. The DAI score (EXCY2 mice; EXCY2 mice) was 1.5, the “colonic mucosa (general crypts aspect, crypt size, presence of goblet cells, absence of immune cells infiltration)” value (EXCY2 mice; OxA-treated vs vehicle treated EXCY2 mice, FIG. 4) was “normal colonic mucosa” and the DAI score (DSS-induced colitis mice; 5% DSS orally 7 days, daily intraperitoneal OxA 0.22 μmoles/kg, scale 0 (no symptoms) to 4 (severe colitis), FIG. 5, printed as 'ameliorated (about of 1.5)') was about 1.5. For the same compound, the “histologic aspect of colon epithelium” value (DSS-induced colitis mice; DSS-treated mice, histologic scoring by a GI pathologist) was “ameliorates”, the “Disease Activity Index (DAI) scored by measuring weight, length of colon, diarrhea and the presence of blood in the stool” value (DSS-induced colitis mice; orally DSS-treated mice (5% DSS for 7 days), FIG. 2) was “ameliorates” and the “deregulated pathways involved in the onset of colitis (oxidative stress and ER stress)” value (Caco2 cells) was “induced”. The IL1B secretion [2, 3] was “reduces”, the IL6 secretion [2, 3] was “reduces” and the IL8 homolog secretion [2, 3] was “reduces”. For the same compound, the TNFα secretion [2, 3] was “reduces”, the IL10 cytokine secretion [2, 4] was “no effect” and the IL12 cytokine secretion [2, 4] was “no effect”. For the same compound, the INFγ cytokine secretion [2, 4] was “no effect”.
